Experimental findings from patent US10030027B2, “Soluble guanylate cyclase stimulators” (MERCK SHARP & DOHME CORP., priority 2015, dated 2018) are described below.

One test deals with sGC α1/β1 heterodimer (Homo sapiens (Human), UniProt Q02108+Q02153). In words: Cell-based sGC functional assay (cyclic GMP assay for sGC activator: CASA assay). On the set-up: % Activation: concentration or dose not given beside the values. The conditions noted are these: CHO-K1/sGC cells; for Emax: CHO-K1, activity expressed as percentage of compound A (standard), read-out: % Activation; for EC50: inflection point, 4P fit, read-out: IP; for % Activation: activity expressed as percentage of compound A (standard). In a few lines:
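CHO-K1 cells stably expressing human sGC α1/β1 were pre-incubated 30 min at 25° C with or without 1 μM DETA-NO, then exposed to compound for 1 hr at 37° C with 0.5 mM IBMX and 2.5% DMSO final. Intracellular cGMP was measured by HTRF, expressed as % of reference sGC-HDA maximum; inflection point and maximum fold induction came from 4-parameter fits.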

Test [1] concerns the target human recombinant sGC enzyme (Homo sapiens (Human), UniProt Q02108+Q02153). In words: Size Exclusion Chromatography (SEC) competition binding assay using [3H] Ex-77B as the radioligand. The conditions noted are these: [3H] Ex-77B radioligand, 24 hours at 37° C. The gist of the method: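 Recombinant human sGC binding measured by competition against tritiated Ex-77B radioligand, with non-specific binding defined by 1 μM unlabeled Ex-77B.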
(In general: SEC sorts molecules by how far they enter the pores of the column.)

SMILES strings stand for the structures.

What is called Ki is the equilibrium dissociation constant of an inhibitor or competing ligand from its target. Regarding `C[C@@]1(c2ccc(CCC(=O)O)cc2)C(=O)Nc2nc(-c3nn(Cc4ccc(F)cc4)c4ccccc34)nc(N)c21` (single isomer, unassigned) [Example 221B], on sGC α1/β1 heterodimer, the Emax stood at 92.1% and the EC50 was found to be 150 nM. The Ki in test [1] is 0.163 nM.

Consider `CC(C)(CCc1coc(C2(C)C(=O)Nc3nc(-c4nn(Cc5cccc(F)c5)c5cc(F)ccc45)nc(N)c32)n1)C(=O)O` (centres unmarked) [Example 197B, 4-(2-{4-amino-2-[6-fluoro-1-(3-fluorobenzyl)-1H-indazol-3-yl]-5-methyl-6-oxo-6,7-dihydro-5H-pyrrolo[2,3-d]pyrimidin-5-yl}-1,3-oxazol-4-yl)-2,2-dimethyl-butanoic acid], for which, on sGC α1/β1 heterodimer, the Emax stood at 106% and the EC50 came out at 125 nM. Also, in test [1], the Ki was determined as 0.162 nM.

As to `C[C@@]1(c2ccc(CCC(=O)O)cc2)C(=O)Nc2nc(-c3nn(Cc4ncccc4F)c4ccccc34)nc(N)c21` [Example 232B, (S)-3-{4-[4-amino-2-{1-[(3-fluoropyridin-2-yl)methyl]-1H-indazol-3-yl}-5-methyl-6-oxo-6,7-dihydro-5H-pyrrolo[2,3-d]pyrimidin-5-yl]phenyl}propanoic acid], at sGC α1/β1 heterodimer, the Emax is 89.1% and the EC50 worked out at 4150 nM. In test [1], the Ki was 0.085 nM.

On to `C[C@@]1(c2ccc(CCC(=O)O)cc2)C(=O)Nc2nc(-c3nn(CCCC(F)(F)F)c4cc(Cl)ccc34)nc(N)c21` [Example 41B, (S)-3-(4-{4-amino-2-[6-chloro-1-(4,4,4-trifluorobutyl)-1H-indazol-3-yl]-5-methyl-6-oxo-6,7-dihydro-5H-pyrrolo[2,3-d]pyrimidin-5-yl}phenyl)propanoic acid], for which, on sGC α1/β1 heterodimer, the Emax was 85% and the EC50 is 779 nM. Further, the Ki in test [1] is 0.717 nM.

Turning to `CC(C)(Cc1ccc(C2(C)C(=O)Nc3nc(-c4nn(Cc5ccccc5F)c5cc(Cl)ccc45)nc(N)c32)nc1)C(=O)O` (centres unmarked) [Example 131B, 3-(6-{4-amino-2-[6-chloro-1-(2-fluorobenzyl)-1H-indazol-3-yl]-5-methyl-6-oxo-6,7-dihydro-5H-pyrrolo[2,3-d]pyrimidin-5-yl}pyridin-3-yl)-2,2-dimethylpropanoic acid], on sGC α1/β1 heterodimer, the Emax turned out to be 120% and the EC50 stood at 1060 nM. Moreover, the Ki in test [1] came out at 0.125 nM.

Turning to `CC(C)(Cc1csc([C@]2(C)C(=O)Nc3nc(-c4nn(CC5CCCCO5)c5cc(F)ccc45)nc(N)c32)n1)C(=O)O` (single isomer, unassigned) [Example 133AB], at sGC α1/β1 heterodimer, the “% Activation” value is 111.4% and the EC50 is 714 nM. Moreover, the Ki in test [1] is 0.359 nM.

Consider `Nc1nc(-c2nn(Cc3ccccc3F)c3ncccc23)nc2c1C(c1ccc(CCC(=O)O)cc1)(C1CC1)C(=O)N2` (centres unmarked) [Example 148A, 3-(4-{4-amino-5-cyclopropyl-2-[1-(2-fluorobenzyl)-1H-pyrazolo[3,4-b]pyridin-3-yl]-6-oxo-6,7-dihydro 5H-pyrrolo[2,3-d]pyrimidin-5-yl}phenyl)propanoic acid], for which, on sGC α1/β1 heterodimer, the Emax came out at 87.8% and the EC50 came out at 238 nM. The Ki in test [1] turned out to be 0.123 nM.

Regarding `CC(C)(Cc1coc(C2(C)C(=O)Nc3nc(-c4nn(Cc5cccc(F)c5)c5cc(Cl)ccc45)nc(N)c32)n1)C(=O)O` (centres unmarked) [Example 175A, 3-(2-{4-amino-2-[6-chloro-1-(3-fluorobenzyl)-1H-indazol-3-yl]-5-methyl-6-oxo-6,7-dihydro-5H-pyrrolo[2,3-d]pyrimidin-5-yl}-1,3-oxazol-4-yl)-2,2-dimethyl-propanoic acid], on sGC α1/β1 heterodimer, the Emax turned out to be 139% and the EC50 came out at 96 nM. Further, the Ki in test [1] was 0.151 nM.

Consider `CC1(c2ccc(CCCC(=O)O)cc2)C(=O)Nc2nc(-c3nn(Cc4ccccc4F)c4ncccc34)nc(N)c21` (centres unmarked) [Example 113B, 4-(4-{4-Amino-2-[1-(2-fluorobenzyl)-1H-pyrazolo[3,4-b]pyridin-3-yl]-5-methyl-6-oxo-6,7-dihydro-5H-pyrrolo[2,3-d]pyrimidin-5-yl}phenyl)butanoic acid], for which, at sGC α1/β1 heterodimer, the Emax worked out at 89% and the EC50 is 568 nM. Besides, the Ki in test [1] was determined as 0.064 nM.

As for `CC1(c2cn(C(C)(C)C(=O)O)nn2)C(=O)Nc2nc(-c3nn(Cc4ccccc4F)c4cc(Cl)ccc34)nc(N)c21` (single isomer, unassigned) [Example 141A, 2-(4-{4-Amino-2-[6-chloro-1-(2-fluorobenzyl)-1H-indazol-3-yl]-5-methyl-6-oxo-6,7-dihydro-5H-pyrrolo[2,3-d]pyrimidin-5-yl}-1H-1,2,3-triazol-1-yl)-2-methylpropanoic acid], the EC50 at sGC α1/β1 heterodimer amounted to 193 nM. Moreover, in test [1], the Ki stood at 0.665 nM.

`CC1(c2cccc(-c3nn[nH]n3)c2)C(=O)Nc2nc(-c3nn(Cc4ccccc4F)c4cc(F)ccc34)nc(N)c21` (centres unmarked) [Example 249B, 4-Amino-2-[6-fluoro-1-(2-fluorobenzyl)-1H-indazol-3-yl]-5-methyl-5-[3-(1H-tetrazol-5-yl)phenyl]-5,7-dihydro-6H-pyrrolo[2,3-d]pyrimidin-6-one]: at sGC α1/β1 heterodimer, the Emax turned out to be 98.5% and the EC50 was 2620 nM. The Ki in test [1] turned out to be 0.068 nM.

In the case of `CC(C)(Cn1cc(C2(C)C(=O)Nc3nc(-c4nn(CCC(F)(F)C(F)(F)F)c5ncccc45)nc(N)c32)cn1)C(=O)O` (centres unmarked) [Example 144A, 3-(4-{4-amino-5-methyl-6-oxo-2-[1-(3,3,4,4,4-pentafluorobutyl)-1H-pyrazolo[3,4-b]pyridin-3-yl]-6,7-dihydro-5H-pyrrolo [2,3-d]pyrimidin-5-yl}-1H-pyrazol-1-yl)-2,2-dimethyl-propanoic acid], on sGC α1/β1 heterodimer, the Emax was determined as 93.1% and the EC50 amounted to 1220 nM. Besides, the inhibition constant Ki in test [1] came out at 0.594 nM.

Consider `CC(C)(Cc1csc([C@]2(C)C(=O)Nc3nc(-c4nn(Cc5c(F)cccc5F)c5cc(Cl)ccc45)nc(N)c32)n1)C(=O)O` [Example 183A, (S)-3-(2-{4-amino-2-[6-chloro-1-(2,6-difluorobenzyl)-1H-indazol-3-yl]-5-methyl-6-oxo-6,7-dihydro-5H-pyrrolo[2,3-d]pyrimidin-5-yl}-1,3-thiazol-4-yl)-2,2-dimethyl-propanoic acid], for which, at sGC α1/β1 heterodimer, the Emax came out at 111% and the EC50 came out at 88 nM. Moreover, in test [1], the inhibition constant Ki came to 0.076 nM.

`CC1(c2cn(CC3(C(=O)O)CC3)nn2)C(=O)Nc2nc(-c3nn(CCC(F)(F)C(F)(F)F)c4cc(Cl)ccc34)nc(N)c21` (centres unmarked) [Example 32B, 1-[(4-{4-amino-2-[6-chloro-1-(3,3,4,4,4-pentafluorobutyl)-1H-indazol-3-yl]-5-methyl-6-oxo-6,7-dihydro-5H-pyrrolo[2,3-d]pyrimidin-5-yl}-1H-1,2,3-triazol-1-yl)methyl]cyclopropanecarboxylic acid]: at sGC α1/β1 heterodimer, the Emax was determined as 79% and the EC50 came out at 445 nM. Moreover, in test [1], the Ki was determined as 1.7 nM.

Consider `C[C@@]1(c2ccc(CCC(=O)O)cc2)C(=O)Nc2nc(-c3nn(Cc4ccccc4F)c4cc(Cl)c(O)cc34)nc(N)c21` [Example 110B, (S)-3-(4-{4-Amino-2-[6-chloro-1-(2-fluorobenzyl)-5-hydroxy-1H-indazol-3-yl]-5-methyl-6-oxo-6,7-dihydro-5H-pyrrolo[2,3-d]pyrimidin-5-yl}phenyl)propanoic acid], for which, on sGC α1/β1 heterodimer, the Emax stood at 78% and the EC50 worked out at 1130 nM. Besides, the Ki in test [1] was determined as 0.361 nM.

As to `CC1CCC(Cn2nc(-c3nc(N)c4c(n3)NC(=O)[C@@]4(C)c3nc(CC(C)(C)C(=O)O)cs3)c3ccc(F)cc32)CC1` (single isomer, unassigned) [Example 136AB], on sGC α1/β1 heterodimer, the “% Activation” value worked out at 71.4% and the EC50 is 23 nM. In addition, the Ki in test [1] was 0.218 nM.
